Laboratory results as given in paper PMC4240912, “Multifaceted interplay between lipophilicity, protein interaction and luminescence parameters of non-intercalative ruthenium(II) polypyridyl complexes controlling cellular imaging and cytotoxic properties” (Journal of Biological Inorganic Chemistry, 2014).

Tests used:
[1] = tested on: 4T1 breast cancer cell line; assay: Alamar Blue cell viability, 4T1; type: cell-based; details: 4T1, 24 h incubation
Experimental: 4T1 breast cancer cell line was cultured in RPMI-1640 (Gibco Invitrogen) with 10 % fetal bovine serum (FBS, the bovine serum albumin is a major component), 1 % penicillin and streptomycin and 0.2 % fungizone. Cells were routinely cultured at 37 °C in a humidified incubator in 5 % CO2 atmosphere. Cell viability was measured using Alamar Blue assay. Cells were seeded on 96-well plate with density of 10^4 cells per cm^2 and cultured for 24 h in medium with or without 2 % serum. Then cells were incubated with various concentrations of ruthenium compounds for 24 h in the dark. All used ruthenium complexes were freshly diluted in DMSO and then added to the appropriate medium to obtain the applied concentrations. The final DMSO concentration was kept constant at 0.05 % (v/v). Next cells were washed with PBS and incubated in AlamarBlue solution (21 times diluted in PBS) for 3 h. Alamar Blue test is based on the reduction of blue and non-fluorescent subtract (resazurin) to a pink and highly fluorescent product (resorufin) by the alive cells. Extract mechanism of the reduction is still unknown, but it is postulated that reduction occurs by mitochondrial or cytoplasmic enzymes, such as NADH dehydrogenase or diaphorase. It is still not known whether this process occurs intracellularly, at the plasma membrane surface or just in the medium as a chemical reaction. The cell viability was quantified at 605 nm using 560 nm excitation light (VICTOR 3V multilabel plate readers, PerkinElmer). Experiments were performed in triplicates and each experiment was performed at least three times to get the mean values ± standard deviation. The viability was calculated with regard to the untreated cells control. The IC50 values were determined using Hill equation (Origin 9.0): y=y0+y100-y0c^H/IC50^H+c^H

[2] = tested on: FVB mouse lung microvascular endothelial cells (MLuMEC FVB); assay: Alamar Blue cell viability, MLuMEC; type: cell-based; details: 24 h
Experimental: (§1) FVB mouse lung microvascular endothelial cells (MLuMEC FVB) and murine endothelial cells isolated from aorta-gonad-mesonephros (AGM) region of 10.5 dpc embryos (MAgEC 10.5) were cultured in OptiMEM with Glutamax-I (Gibco Invitrogen) supplemented with 2% fetal bovine serum (FBS), 0.4% gentamycin and 0.2% fungizone. […]
(§2) 10% FBS, 1% peniciline and streptomycin and 0.2% fungizone. Cells were routinely cultured at 37 °C in a humidified incubator in 5% CO2 atmosphere.
(§3) Cell viability was measured using Alamar Blue assay. Cells were seeded on 96 wells plate with density of 1 × 10^4 cells per cm2 and cultured for 1 day. Then cells were incubated with various concentrations of compounds in medium with or without 2% FBS for 24 and 48 h under normoxic and hypoxic conditions in the darkness. Next cells were washed with PBS and incubated in Alamar Blue solution for 3 h. The cell viability was quantified at 605 nm using 560 nm excitation light (VICTOR 3V multilabel plate reader PerkinElmer or Tecan Infinite200 Reader). Experiments were performed in triplicates and each experiment was performed at least three times to get the mean values ± standard derivation. The viability was calculated with regard to the untreated cells control. The IC50 values were determined using Hill equation (Origin 9.0). […]

[3] = n-octan-1-ol/water partition (lipophilicity); type: physicochemical; details: 25 °C
Experimental: The lipophilicity of the ruthenium(II) complexes, which is referred to log P o/w (n-octan-1-ol/water partition coefficient), was measured as following. Ruthenium complexes were dissolved in n-octan-1-ol (to mM concentration), then solutions were added to water and the mixtures were stirred sufficiently for partitioning at 25 °C for 24 h. After that the mixtures were left for equilibration for another 2 h. The concentration of the compounds in the water phase was measured spectrophotometrically and P o/w value was calculated according to the equation: PO/w=coctanolbefore-cwater/cwater , where coctanolbefore is an initial concentration of ruthenium complex, c water denotes final concentration in water. The experiment was conducted in triplicates.

[4] = Luminescence quantum yield and lifetime in aqueous solution; type: physicochemical
Experimental: UV–Vis absorption spectra were recorded on a Perkin Elmer Lambda 35 spectrophotometer. Luminescence measurements were performed on a spectrofluorimeter Perkin Elmer LS55. The spectra were recorded at the room temperature in aqueous solution containing small amount of DMSO (<0.008 % v/v). The emission spectra were recorded between 470 and 860 nm upon excitation at 463 nm. The average of three scans was subjected to smoothing. For determination of the quantum yield of luminescence (Φ), aqueous solutions of [Ru(bpy)3]^2+ with a small amount of DMSO (<0.008 % v/v) were used as standards (Φ = 0.028 [14] and 0.042 [20] for air-equilibrium and deoxygenated conditions, respectively). The spectra were recorded for ruthenium complexes at the concentration less than 0.05 absorbance unit at the excitation wavelength. Values were calculated according to the following equation [21]: Φ=Φref×Aref/A×I/Iref×n^2/nref2, where I is the integrated intensity of luminescence, A is the optical density, and n is the refractive index, ref refers to the values for reference. The mean value from minimum three independent experiments was calculated.
The luminescence lifetime measurements were performed with a single photon counting technique using Fluorolog-3, Horiba Jobin Yvon. The excitation wavelength was set at 464 nm (NanoLed Diodes) and the average lifetime of luminescence was monitored at 621 nm. Luminescence decays were collected with 1,000 counts in the peak. The instrument response functions were measured using a light scattering solution of Ludox (colloidal silica, Sigma-Aldrich). Experiments were conducted at room temperature. The DAS6 software (HORIBA Scientific) was used for deconvolution of the obtained decays and for calculation of the lifetime values. The quality of the fit was judged by the χ ^2 parameter (the goodness of fit evaluation). One-exponential fit was determined to be an optimal description of the obtained results for the ruthenium compounds.

[5] = tested on: Human lung adenocarcinoma epithelial cell line (A549); assay: Alamar Blue cell viability, A549; type: cell-based; details: A549, 24 h
Experimental: as §2, §3

[6] = tested on: murine endothelial cells isolated from aorta-gonad-mesonephros (AGM) region of 10.5 dpc embryos (MAgEC 10.5); assay: Alamar Blue cell viability, MAgEC 10.5; type: cell-based; details: MAgEC 10.5, 24 h
Experimental: as §1, §2, §3

[7] = air-equilibrated conditions, excitation 463 nm

Molecule	IC50 ([1]; medium with serum (2 %)) [µM]	IC50 ([1]; medium without serum) [µM]	IC50 ([2]; with serum (2%)) [µM]	IC50 ([2]; without serum) [µM]	log P o/w [3]	τ, luminescence lifetime ([4]; air-equilibrated conditions) [ns]	φ, quantum yield of luminescence [4, 7]	τ, luminescence lifetime ([4]; deoxygenated conditions) [µs]	φ, quantum yield of luminescence ([4]; deoxygenated conditions)	IC50 ([5]; with serum (2%)) [µM]	IC50 ([5]; without serum) [µM]	IC50 ([6]; with serum (2%)) [µM]	IC50 ([6]; without serum) [µM]
Cc1ccnc(-c2cc(C)ccn2)c1.[Ru+2].c1ccc(-c2ccnc3c2ccc2c(-c4ccccc4)ccnc23)cc1.c1ccc(-c2ccnc3c2ccc2c(-c4ccccc4)ccnc23)cc1 [[Ru(dip)2(CH3bpy-CH3)]^2+]	9.32 ± 1.37	4.9 ± 0.3	8.32 ± 0.06	3.36 ± 0.35	0.484 ± 0.046	690 ± 10	0.0254 ± 0.0009	2.23 ± 0.01	0.0778 ± 0.0016	11.6 ± 2.19	5.47 ± 0.87	6.28 ± 0.52	2.45 ± 0.42
Cc1ccnc(-c2cc(C(=O)[O-])ccn2)c1.[Ru+2].c1ccc(-c2ccnc3c2ccc2c(-c4ccccc4)ccnc23)cc1.c1ccc(-c2ccnc3c2ccc2c(-c4ccccc4)ccnc23)cc1 [[Ru(dip)2(CH3bpy-COO)]^+]	13.9 ± 3	8.66 ± 1.47	18.1 ± 2.19	7.74 ± 1.26	1.857 ± 0.079	530 ± 10	0.0226 ± 0.0012	1.02 ± 0.01	0.0429 ± 0.0004	9.79 ± 0.89	6.05 ± 1.87	16 ± 1.5	7.23 ± 0.53
[Ru+2].c1ccc(-c2ccccn2)nc1.c1ccc(-c2ccnc3c2ccc2c(-c4ccccc4)ccnc23)cc1.c1ccc(-c2ccnc3c2ccc2c(-c4ccccc4)ccnc23)cc1 [[Ru(dip)2(bpy)]^2+]	13.6 ± 1.75	6.79 ± 1.09	11.7 ± 1.6	4.7 ± 0.41	0.328 ± 0.026	760 ± 10	0.0367 ± 0.0004	2.51 ± 0.01	0.1245 ± 0.0004	27.7 ± 1.2	13.5 ± 5.3	16.7 ± 1.88	4.15 ± 0.57
O=[N+]([O-])c1nccn1CCCc1ccnc(-c2ccccn2)c1.[Ru+2].c1ccc(-c2ccnc3c2ccc2c(-c4ccccc4)ccnc23)cc1.c1ccc(-c2ccnc3c2ccc2c(-c4ccccc4)ccnc23)cc1 [[Ru(dip)2(bpy-NitroIm)]^2+]	18.8 ± 1.29	10.6 ± 1.05	10.4 ± 1.31	6.08 ± 0.7	0.413 ± 0.083					17.5 ± 5.7	11.8 ± 1.2	7.4 ± 0.81	4.65 ± 0.62
[Ru(dip)2(1,3-dicyclohexyl-1-[4-carbonyl-(4′-methyl-2,2′-bipyridyl)]-urea)]Cl2 [[Ru(dip)2(CH3bpy-DCU)]^2+]	9.01 ± 1.33	4.71 ± 0.18	5.84 ± 0.24	2.28 ± 0.61	1.114 ± 0.012	460 ± 10	0.0044 ± 0.0002	1.85 ± 0.02	0.0049 ± 0.0002	7.22 ± 0.34	5.43 ± 0.11	4.62 ± 0.22	2.54 ± 1.12
